According to US7365194B2 (Pondicherry University and Department of Biotechnology, priority 2004, dated 2008):

What was measured:
[1] = test system: phytopathogens; details: in vitro, complete ionization to an inactive carboxylate ion; cited from earlier work
[2] = test system: Salmonella typhimurium; assay: Antimicrobial MIC, agar/disc diffusion; format: cell-based; details: 27° C. to about 37° C. for 48 hr
Method: (§1) Assay plates were incubated at 28° C. for 3 days to observe the zone of growth-inhibition of test microorganisms.
(§2) Test compound was dissolved in chloroform at various concentrations, separately loaded on to sterile filter paper discs (Whatman No.1, 6 mm diameter) and placed on the surface of agar plates pre-inoculated with the test pathogens. Assay plates were incubated at 27° C. for 72 hr for fungi and 27° C. to about 37° C. for 48 hr for bacteria.

[3] = test system: Botrytis cinera; assay: Antimicrobial MIC, agar/disc diffusion; format: cell-based; details: 27° C. for 72 hr
Method: as §1, §2

[4] = test system: Macrophomina phaeseolina; assay: Antimicrobial MIC, agar/disc diffusion; format: cell-based; details: 27° C. for 72 hr
Method: as §1, §2

[5] = test system: Fusarium oxysporum sub sp. cubense; assay: Antimicrobial MIC, agar/disc diffusion; format: cell-based; details: 27° C. for 72 hr
Method: as §1, §2

[6] = test system: Rhizoctonia solani; assay: Antimicrobial MIC, agar/disc diffusion; format: cell-based; details: 27° C. for 72 hr
Method: as §1, §2

[7] = test system: Pseudomonas aeruginosa; assay: Antimicrobial MIC, agar/disc diffusion; format: cell-based; details: 27° C. to about 37° C. for 48 hr
Method: as §1, §2

[8] = test system: C. falcatum; assay: Antimicrobial MIC, agar/disc diffusion; format: cell-based; details: 27° C. for 72 hr
Method: as §1, §2

[9] = test system: Staphylococcus aureus; assay: Antimicrobial MIC, agar/disc diffusion; format: cell-based; details: 27° C. to about 37° C. for 48 hr
Method: as §1, §2

[10] = test system: Sarocladium oryzae; assay: Antimicrobial MIC, agar/disc diffusion; format: cell-based; details: 27° C. for 72 hr
Method: as §1, §2

[11] = test system: Escherichia coli; assay: Antimicrobial MIC, agar/disc diffusion; format: cell-based; details: 27° C. to about 37° C. for 48 hr
Method: as §1, §2

[12] = test system: Colletotrichum gleosporoides; assay: Antimicrobial MIC, agar/disc diffusion; format: cell-based; details: 27° C. for 72 hr
Method: as §1, §2

[13] = test system: C. capsici; assay: Antimicrobial MIC, agar/disc diffusion; format: cell-based; details: 27° C. for 72 hr
Method: as §1, §2

[14] = test system: plant, animal and human pathogens; assay: Antimicrobial activity in acidic and alkaline pH; format: cell-based; details: in vitro
Method: as §1, §2

[15] = test system: cell lines; assay: MTT cytotoxicity assay; format: cell-based; design: dose or concentration left out as unconfirmed; details: average of three replicates
Method: (§3) At the end of incubation, 20 μL MTT (5 mg/mL) was added and cells were incubated at 37° C. After 4 hr, MTT was removed and 100 μL of DMSO was added. Cell viability was determined by measuring the absorbance at a test wavelength of 570 nm.
as §3, with “Cytotoxycity of dimer of phenazine-1-carboxylic acid natural product against cell lines was determined by MTT assay. […] At” for “At”

| Molecule | effectiveness in alkaline pH [1] | MIC [2] [µg/mL] | MIC [3] [µg/mL] | MIC [4] [µg/mL] | MIC [5] [µg/mL] | MIC [6] [µg/mL] | MIC [7] [µg/mL] | MIC [8] [µg/mL] | MIC [9] [µg/mL] | MIC [10] [µg/mL] | MIC [11] [µg/mL] | MIC [12] [µg/mL] | MIC [13] [µg/mL] | antimicrobial activity [14] | OD @ 570 nm ([15]; concentration 1, 24 hr at 37° C.) | OD @ 570 nm ([15]; concentration 10, 24 hr at 37° C.) | OD @ 570 nm ([15]; concentration 25, 24 hr at 37° C.) | OD @ 570 nm ([15]; concentration 50, 24 hr at 37° C.) |
| --- | --- | --- | --- | --- | --- | --- | --- | --- | --- | --- | --- | --- | --- | --- | --- | --- | --- | --- |
| O=C(O)c1cccc2nc3ccccc3nc12 [PCA, phenazine 1-carboxylic acid] | ineffective |  |  |  |  |  |  |  |  |  |  |  |  |  |  |  |  |  |
| dimer of phenazine-1-carboxylic acid |  | >120 | 14 | 12 | 7 | 2 | >90 | 5 | >120 | 3 | >100 | 7 | 7 | showed antimicrobial activity | 0.531 | 0.472 | 0.366 | 0.285 |
